Test results reported in patent US9376432B2, “Use of VEGFR-3 inhibitors for treating hepatocellular carcinoma” (Sanofi, priority 2012, dated 2016).

Legend:
hepatocellular carcinoma = conditions: HCC patients; literature; cited from earlier work
VEGFR-3 = VEGFR-3 (Homo sapiens, UniProt P35916); conditions: disclosed in the '145 application; read-out: IC50, inhibition of recombinant VEGFR-3 TK activity and autophosphorylation in HEK cells; cited from earlier work
primary lymphatic cells = assay: VEGFC- and VEGFD-induced proliferation of primary lymphatic cells; assay type: cell-based; conditions: read-out: IC50, inhibition of VEGFC- and VEGFD-induced proliferation
[1] = system: 85 different kinases and 107 receptors, enzymes and ion channels; assay: selectivity versus other kinases, receptors, enzymes and ion channels
[2] = system: HepG2 cell line orthotopic xenograft; assay: HepG2 cell line orthotopic xenograft model (murine hepatocarcinoma xenograft); assay type: in vivo, SCID mice; conditions: 100 mg/kg once a day
Method: The in vivo anti-tumor efficacy of the compound of Example 1 in HepG2 cell line orthotopic xenograft model was evaluated. The HepG2 cells were injected into liver of SCID mice (obtained from ATCC) and mice were randomized into 2 groups 14 days post cell injection: a control group treated with vehicle and the compound of Example 1-treated group. Treatment was performed once a day at 100 mg/kg in methyl cellulose tween as vehicle.
The tumor size was measured by weighting the left lobe with the tumor at day 28. […] Normal liver lobe was also measured and deduced from the lobe of tumor bearing mice. […] (See FIG. 1).

[3] = system: DEN-induced hepatocarcinoma; assay: DEN chemical-induced hepatocarcinoma in mice; assay type: in vivo, male C3H mice
Method: DEN (N-diethynitrosamine)-induced mouse model has been validated as a representative model for human HCC Wu et al. J. Cancer Res. Clin. Oncol. (2009) 135. 969-981; Chuang et al. Carcinogenesis (2000) 21; 331-335).
Tumor initiation was achieved by a single intra peritoneal injection of 10 mg/kg of N-diethylnitrosamine (DEN) in male C3H mice (Charles river laboratories France) at the age of 5 weeks.
Mice developed tumors in the liver from the 7th month post DEN administration but the incidence reached 100% at the 12th month. The compound of Example 1 was daily administrated P.O. (orally) after suspension in methyl cellulose tween, between the 10th and 12th month after DEN administration.
The body weight was evaluated each week during treatment and on the 12th months. Mice were killed by overdose of sodium pentobarbital, and livers were removed and weighted. The number of tumors per liver was counted and the tumor volume was measured with calipers. The tumor volume V was calculated using formula V=0.52×a^2×b, where “a” represents the smallest tumor diameter and “b” the largest tumor diameter.

VEGFR-1 = VEGFR-1 (Homo sapiens, UniProt P17948); conditions: same assays as VEGFR-3; disclosed in the '145 application; cited from earlier work
Sequence of VEGFR-1 (P17948 27-1338): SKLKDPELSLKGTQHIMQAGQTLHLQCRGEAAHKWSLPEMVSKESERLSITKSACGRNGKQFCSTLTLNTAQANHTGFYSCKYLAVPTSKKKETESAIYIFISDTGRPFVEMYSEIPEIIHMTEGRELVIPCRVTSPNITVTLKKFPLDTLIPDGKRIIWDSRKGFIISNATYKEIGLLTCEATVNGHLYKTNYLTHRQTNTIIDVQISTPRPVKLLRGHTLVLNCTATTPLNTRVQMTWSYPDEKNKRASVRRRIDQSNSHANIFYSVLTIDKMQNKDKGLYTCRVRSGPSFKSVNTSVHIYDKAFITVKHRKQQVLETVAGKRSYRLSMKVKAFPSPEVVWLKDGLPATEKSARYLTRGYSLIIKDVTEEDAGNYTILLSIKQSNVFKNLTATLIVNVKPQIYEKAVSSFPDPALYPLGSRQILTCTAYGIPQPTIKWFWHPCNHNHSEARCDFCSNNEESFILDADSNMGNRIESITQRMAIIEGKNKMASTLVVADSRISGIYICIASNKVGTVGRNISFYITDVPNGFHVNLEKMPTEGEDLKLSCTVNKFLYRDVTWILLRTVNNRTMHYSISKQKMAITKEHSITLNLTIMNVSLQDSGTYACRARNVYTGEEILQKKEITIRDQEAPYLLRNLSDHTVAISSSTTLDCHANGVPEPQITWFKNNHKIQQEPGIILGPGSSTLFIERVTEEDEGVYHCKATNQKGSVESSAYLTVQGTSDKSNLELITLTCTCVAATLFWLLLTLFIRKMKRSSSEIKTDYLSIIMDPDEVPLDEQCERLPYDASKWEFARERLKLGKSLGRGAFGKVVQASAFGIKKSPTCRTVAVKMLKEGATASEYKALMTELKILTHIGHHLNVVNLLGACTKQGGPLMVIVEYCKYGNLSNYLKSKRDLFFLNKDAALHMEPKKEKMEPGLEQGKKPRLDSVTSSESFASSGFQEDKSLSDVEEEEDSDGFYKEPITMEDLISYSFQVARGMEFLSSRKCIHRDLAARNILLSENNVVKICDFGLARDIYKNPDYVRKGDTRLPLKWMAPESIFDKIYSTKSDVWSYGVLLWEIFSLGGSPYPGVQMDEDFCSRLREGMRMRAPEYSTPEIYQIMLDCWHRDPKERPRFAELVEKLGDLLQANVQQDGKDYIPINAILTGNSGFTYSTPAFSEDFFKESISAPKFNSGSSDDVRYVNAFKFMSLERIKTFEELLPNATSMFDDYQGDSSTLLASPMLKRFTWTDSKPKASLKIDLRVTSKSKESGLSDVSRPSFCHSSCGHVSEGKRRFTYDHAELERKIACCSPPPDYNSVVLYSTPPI

[4] = daily P.O. between 10th and 12th month after DEN, vs vehicle group
[5] = late treatment, 10th to 12th month after DEN, compared to same parameters at the 10th month

Sequence of VEGFR-3 (P35916 25-1363): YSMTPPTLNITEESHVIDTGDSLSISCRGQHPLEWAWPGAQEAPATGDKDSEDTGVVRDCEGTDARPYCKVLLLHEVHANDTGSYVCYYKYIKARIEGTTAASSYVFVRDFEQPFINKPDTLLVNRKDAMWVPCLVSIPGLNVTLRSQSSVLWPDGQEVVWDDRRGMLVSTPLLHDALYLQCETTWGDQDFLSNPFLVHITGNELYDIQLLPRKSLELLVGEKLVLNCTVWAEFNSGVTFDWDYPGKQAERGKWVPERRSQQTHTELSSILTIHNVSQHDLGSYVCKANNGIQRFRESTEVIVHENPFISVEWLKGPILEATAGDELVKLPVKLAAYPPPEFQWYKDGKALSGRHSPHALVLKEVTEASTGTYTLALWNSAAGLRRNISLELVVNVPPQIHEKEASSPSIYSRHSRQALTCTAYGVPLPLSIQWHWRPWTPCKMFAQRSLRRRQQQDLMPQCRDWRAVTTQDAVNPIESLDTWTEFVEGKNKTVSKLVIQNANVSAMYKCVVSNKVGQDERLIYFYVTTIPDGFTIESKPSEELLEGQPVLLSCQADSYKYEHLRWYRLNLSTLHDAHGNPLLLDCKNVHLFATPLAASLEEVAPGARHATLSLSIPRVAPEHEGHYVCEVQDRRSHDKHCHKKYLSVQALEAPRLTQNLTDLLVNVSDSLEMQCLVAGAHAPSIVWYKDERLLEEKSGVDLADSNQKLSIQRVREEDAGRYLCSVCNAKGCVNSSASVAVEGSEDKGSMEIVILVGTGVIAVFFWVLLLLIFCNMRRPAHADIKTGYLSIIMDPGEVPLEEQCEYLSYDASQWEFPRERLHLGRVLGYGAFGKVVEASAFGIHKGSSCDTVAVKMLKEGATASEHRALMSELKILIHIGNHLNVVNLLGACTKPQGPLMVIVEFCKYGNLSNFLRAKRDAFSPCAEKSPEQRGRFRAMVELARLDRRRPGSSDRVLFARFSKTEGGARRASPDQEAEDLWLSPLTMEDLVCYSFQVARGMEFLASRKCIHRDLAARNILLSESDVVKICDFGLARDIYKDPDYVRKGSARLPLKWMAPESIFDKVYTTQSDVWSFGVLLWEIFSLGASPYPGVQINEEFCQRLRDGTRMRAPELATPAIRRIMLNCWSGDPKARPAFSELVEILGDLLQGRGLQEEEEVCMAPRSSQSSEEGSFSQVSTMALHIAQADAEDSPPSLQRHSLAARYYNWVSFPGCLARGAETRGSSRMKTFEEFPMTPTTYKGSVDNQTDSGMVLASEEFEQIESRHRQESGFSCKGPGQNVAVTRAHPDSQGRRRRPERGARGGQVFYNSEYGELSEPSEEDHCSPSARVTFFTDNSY

| SMILES | OS (overall survival) gain over placebo (hepatocellular carcinoma) | IC50 (VEGFR-3) [nM] | IC50 (primary lymphatic cells) [nM] | selectivity for VEGFR-3 compared to other tested kinases, receptors, enzymes and ion channels [1] | decrease of mean weight of the liver lobe bearing the tumor ([2]; from 14 days post cell injection, Day 28 post cell injection, vs vehicle, p=0.001) [%] | reduction of tumor weight (normal liver lobe weight deduced) ([2]; Day 28, normal liver lobe deduced from lobe of tumor bearing mice) [%] | total liver weight ([3]; daily P.O. between 10th and 12th month after DEN) | reduction of number of tumors/liver [3, 4] [%] | reduction of total tumor volume [3, 4] [%] | formation of new loci compared to the 10th month [3, 5] | tumor development compared to the 10th month [3, 5] | IC50 (VEGFR-1) [nM] |
| --- | --- | --- | --- | --- | --- | --- | --- | --- | --- | --- | --- | --- |
| CNC(=O)c1cc(Oc2ccc(NC(=O)Nc3ccc(Cl)c(C(F)(F)F)c3)cc2)ccn1 [Sorafenib] | 2-3 months | – | – | – | – | – | – | – | – | – | – | – |
| CCn1c(N)c(-c2ncc[nH]2)c(=O)c2ccc(C#C[C@@](C)(O)CO)nc21 [Example 2, 2-Amino-7-((3R)3,4-dihydroxy-3-methyl-but-1-ynyl)-1-ethyl-3-(1H-imidazol-2-yl)-1,8-naphthyridin-4(1H)-one] | – | ~47 | – | – | – | – | – | – | – | – | – | – |
| CCn1c(N)c(-c2ncc[nH]2)c(=O)c2ccc(C#C[C@@](C)(O)COC)nc21 [Example 1, 2-Amino-1-ethyl-7-((3R)-3-hydroxy-4-methoxy-3-methyl-but-1-ynyl)-3-(1H-imidazol-2-yl)-1H-[1,8]-naphthyridin-4-one] | – | ~25 | 10 to 15 | highly selective for VEGFR-3 | 34 | 62 | reduced and almost normalized | 50 | 85 | prevented the formation of new loci | completely blocked tumor development | > 1000 |
